Patent publication US20110092490A1, “PYRIMIDINES, TRIAZINES AND THEIR USE AS PHARMACEUTICAL AGENTS” (THE UNIVERSITY OF NOTTINGHAM, priority 2008, published 2011)
Read-outs that look alike come from different tables or passages of the source.

Legend:
MCF-7 = assay: 72-h MTT cytotoxicity assay; assay type: cell-based, human; details: for GI50: Homo sapiens, MCF7 cells, 72-h MTT
Procedure: (§1) MTT cytotoxicity assay. […] Human tumour cell lines were obtained from ECACC (European Collection of Cell Cultures). Standard 72-h MTT (thiazolyl blue; 3-[4,5-dimethylthiazol-2-yl]-2,5-diphenyltetrazolium bromide, 2 mg/ml in phosphate buffered saline) assays were performed. In short: cells were seeded into 96-well plates according to doubling time and incubated overnight at 37° C. Test compounds were made up in DMSO and a ⅓ dilution series prepared in 100 μL cell media, added to cells (in triplicates) and incubated for 72 hr at 37° C. MTT was made up as a stock of 5 mg/mL in cell media and filter-sterilised. Media was removed from cells followed by a wash with 200 μL PBS. MTT solution was then added at 20 μL per well and incubated in the dark at 37° C. for 4 h. MTT solution was removed and cells again washed with 200 μL PBS. MTT dye was solubilised with 200 μL per well of DMSO with agitation. Absorbance was read at 550 nm on an Anthos Labtec Systems plate reader.

HCT-116 = assay: 72-h MTT cytotoxicity assay; assay type: cell-based, human; details: for GI50: Homo sapiens, HCT-116, HCT116 cells, 72-h MTT
Procedure: as §1

[1] = 72-h MTT cytotoxicity assay; assay type: cell-based; details: human, MRC5 cells
Procedure: as §1

CDK2 = CDK2 (Homo sapiens, UniProt P24941); assay: Kinase assay (radioactive phosphate incorporation); assay type: biochemical; details: CDK2-cyclinE; read-out: Kinase inhibition IC50 CDK2-cyclinE
Procedure: (§2) Kinase assays. […] This was achieved by measurement of incorporation of radioactive phosphate from ATP into appropriate polypeptide substrates. Recombinant protein kinases and kinase complexes were produced or obtained commercially. Assays were performed using 96-well plates and appropriate assay buffers (typically 25 mM β-glycerophosphate, 20 mM MOPS, 5 mM EGTA, 1 mM DTT, 1 mM […], pH 7.4), into which were added 2-4 μg of active enzyme with appropriate substrates. The reactions were initiated by addition of Mg/ATP mix (15 mM MgCl2+100 μM ATP with 30-50 kBq per well of [γ-^32P]-ATP) and mixtures incubated as required at 30° C.; Reactions were stopped on ice, followed by filtration through p81 filterplates or GF/C filterplates (Whatman Polyfiltronics, Kent, UK). After washing 3 times with 75 mM aq orthophosphoric acid, plates were dried, scintillant added and incorporated radioactivity measured in a scintillation counter (TopCount, Packard Instruments, Pangbourne, Berks, UK). Compounds for kinase assay were made up as 10 mM stocks in DMSO and diluted into 10% DMSO in assay buffer.

CDK9 = CDK9 (Homo sapiens, UniProt P50750); assay: Kinase assay (radioactive phosphate incorporation); assay type: biochemical
Procedure: as §2

HeLa = assay: 72-h MTT cytotoxicity assay; assay type: cell-based; details: read-out: 72-h MTT IC50 (μM), human cell line, cervix
Procedure: (§3) MTT cytotoxicity assay. The compounds from the examples above were subjected to a standard cellular proliferation assay using the method described previously (Haselsberger, K. et al. Anti Cancer Drugs 1996, 7, (3), 331-8. Loveland, B. E. et al. Biochemistry International 1992, 27, (3), 501-10). Human tumour cell lines were obtained from ECACC (European Collection of Cell Cultures). Standard 72-h MTT (thiazolyl blue; 3-[4,5-dimethylthiazol-2-yl]-2,5-diphenyltetrazolium bromide, 2 mg/ml in phosphate buffered saline) assays were performed. In short: cells were seeded into 96-well plates according to doubling time and incubated overnight at 37° C. Test compounds were made up in DMSO and a ⅓ dilution series prepared in 100 μL cell media, added to cells (in triplicates) and incubated for 72 hr at 37° C. MTT was made up as a stock of 5 mg/mL in cell media and filter-sterilised. Media was removed from cells followed by a wash with 200 μL PBS. MTT solution was then added at 20 μL per well and incubated in the dark at 37° C. for 4 h. MTT solution was removed and cells again washed with 200 μL PBS. MTT dye was solubilised with 200 μL per well of DMSO with agitation. Absorbance was read at 550 nm on an Anthos Labtec Systems plate reader.

MDA-MB-231 = assay: 72-h MTT cytotoxicity assay; assay type: cell-based; details: read-out: 72-h MTT IC50 (μM), human cell line, breast
Procedure: as §3

PANC W1 = assay: 72-h MTT cytotoxicity assay; assay type: cell-based; details: read-out: 72-h MTT IC50 (μM), human cell line, pancreatic carcinoma
Procedure: as §3

A549 = assay: 72-h MTT cytotoxicity assay; assay type: cell-based; details: read-out: 72-h MTT IC50 (μM), human cell line, lung
Procedure: as §3

Mia-Paca-2 = assay: 72-h MTT cytotoxicity assay; assay type: cell-based; details: read-out: 72-h MTT IC50 (μM), human cell line, pancreatic carcinoma
Procedure: as §3

NCI-H460 = assay: 72-h MTT cytotoxicity assay; assay type: cell-based; details: read-out: 72-h MTT IC50 (μM), human cell line, lung
Procedure: as §3

A2780 = assay: 72-h MTT cytotoxicity assay; assay type: cell-based; details: read-out: 72-h MTT IC50 (μM), human cell line, ovarian carcinoma
Procedure: as §3

CDK7 = CDK7 (Homo sapiens, UniProt P50613); assay: Kinase assay (radioactive phosphate incorporation); assay type: biochemical; details: CDK7-cyclinH; read-out: Kinase inhibition IC50 CDK7-cyclinH
Procedure: Kinase assays. The compounds from the examples above were investigated for their ability to inhibit the enzymatic activity of various protein kinases using the method as disclosed in Wang, S. et al. J Med Chem 2004, 47, 1662. This was achieved by measurement of incorporation of radioactive phosphate from ATP into appropriate polypeptide substrates. Recombinant protein kinases and kinase complexes were produced or obtained commercially. Assays were performed using 96-well plates and appropriate assay buffers (typically 25 mM β-glycerophosphate, 20 mM MOPS, 5 mM EGTA, 1 mM DTT, 1 mM […], pH 7.4), into which were added 2-4 μg of active enzyme with appropriate substrates. The reactions were initiated by addition of Mg/ATP mix (15 mM MgCl2+100 μM ATP with 30-50 kBq per well of [γ-^32P]-ATP) and mixtures incubated as required at 30° C.; Reactions were stopped on ice, followed by filtration through p81 filterplates or GF/C filterplates (Whatman Polyfiltronics, Kent, UK). After washing 3 times with 75 mM aq orthophosphoric acid, plates were dried, scintillant added and incorporated radioactivity measured in a scintillation counter (TopCount, Packard Instruments, Pangbourne, Berks, UK). Compounds for kinase assay were made up as 10 mM stocks in DMSO and diluted into 10% DMSO in assay buffer.

Human tumour cell lines = assay: 72-h MTT cytotoxicity assay, human tumour cell lines (panel / mean); assay type: cell-based; details: read-out: 72-h MTT IC50 (μM), mean over the nine human cell lines of Table A2
Procedure: as §3

[2] = CDK9-cyclinT1, read-out: Kinase inhibition IC50 CDK9-cyclinT1

CDK9, sequence (P50750 whole entry, species assumed): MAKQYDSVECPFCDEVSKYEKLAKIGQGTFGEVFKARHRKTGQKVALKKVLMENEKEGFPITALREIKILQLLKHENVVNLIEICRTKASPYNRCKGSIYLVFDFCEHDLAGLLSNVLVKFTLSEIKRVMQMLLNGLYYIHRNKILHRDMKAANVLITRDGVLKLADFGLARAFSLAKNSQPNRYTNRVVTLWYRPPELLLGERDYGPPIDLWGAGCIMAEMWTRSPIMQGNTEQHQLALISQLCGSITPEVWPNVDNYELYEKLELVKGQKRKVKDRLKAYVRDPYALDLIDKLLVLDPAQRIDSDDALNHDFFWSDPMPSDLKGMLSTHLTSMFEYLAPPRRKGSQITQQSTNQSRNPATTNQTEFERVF
CDK9, sequence (O60563 whole entry partner, species assumed): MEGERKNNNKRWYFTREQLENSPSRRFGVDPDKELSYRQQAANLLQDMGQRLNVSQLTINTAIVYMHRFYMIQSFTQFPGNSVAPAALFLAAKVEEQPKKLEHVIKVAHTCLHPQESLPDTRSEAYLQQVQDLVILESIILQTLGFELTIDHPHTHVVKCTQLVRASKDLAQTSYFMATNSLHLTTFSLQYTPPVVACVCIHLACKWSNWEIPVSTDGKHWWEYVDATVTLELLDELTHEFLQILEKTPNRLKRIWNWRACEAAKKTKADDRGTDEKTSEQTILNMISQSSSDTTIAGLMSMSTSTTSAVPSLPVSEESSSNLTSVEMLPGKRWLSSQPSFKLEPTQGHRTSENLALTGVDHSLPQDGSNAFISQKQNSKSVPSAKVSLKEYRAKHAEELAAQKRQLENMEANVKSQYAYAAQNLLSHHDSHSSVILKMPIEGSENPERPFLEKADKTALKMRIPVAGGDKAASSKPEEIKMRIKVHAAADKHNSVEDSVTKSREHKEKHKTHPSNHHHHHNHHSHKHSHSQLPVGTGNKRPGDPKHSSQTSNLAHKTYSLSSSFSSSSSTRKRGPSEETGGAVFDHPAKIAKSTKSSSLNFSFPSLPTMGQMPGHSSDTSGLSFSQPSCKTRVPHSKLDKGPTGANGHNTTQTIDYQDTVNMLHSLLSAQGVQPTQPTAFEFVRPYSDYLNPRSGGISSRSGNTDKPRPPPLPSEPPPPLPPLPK
CDK7, sequence (P50613 whole entry, species assumed): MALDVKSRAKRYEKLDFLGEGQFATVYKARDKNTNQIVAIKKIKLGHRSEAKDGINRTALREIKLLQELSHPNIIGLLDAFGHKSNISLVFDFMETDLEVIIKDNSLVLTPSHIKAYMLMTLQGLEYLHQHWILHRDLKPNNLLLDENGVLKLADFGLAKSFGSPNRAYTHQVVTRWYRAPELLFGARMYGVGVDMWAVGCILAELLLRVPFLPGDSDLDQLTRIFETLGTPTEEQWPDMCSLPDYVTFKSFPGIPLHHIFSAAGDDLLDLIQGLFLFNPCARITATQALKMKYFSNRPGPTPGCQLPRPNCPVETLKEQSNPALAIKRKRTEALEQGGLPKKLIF
CDK7, sequence (P51946 whole entry partner, species assumed): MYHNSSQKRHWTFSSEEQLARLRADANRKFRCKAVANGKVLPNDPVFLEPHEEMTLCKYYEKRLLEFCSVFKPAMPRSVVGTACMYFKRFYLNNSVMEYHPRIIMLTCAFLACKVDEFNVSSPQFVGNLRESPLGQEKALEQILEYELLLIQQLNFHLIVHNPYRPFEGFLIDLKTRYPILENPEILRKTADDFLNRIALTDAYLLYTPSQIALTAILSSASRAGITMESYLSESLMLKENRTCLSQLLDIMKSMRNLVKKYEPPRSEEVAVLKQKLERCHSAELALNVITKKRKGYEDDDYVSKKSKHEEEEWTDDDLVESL

Compound | GI50 (MCF-7) | GI50 (HCT-116) | GI50 at 72 h [1] | also measured
CNc1nc(C)c(-c2nc(Nc3ccc(O)cc3)ncc2C#N)s1 [Example 1.2, 2-(4-Hydroxy-phenylamino)-4-(4-methyl-2-methylamino-thiazol-5-yl)-pyrimidine-5-carbonitrile] | 0.23 µM | 0.4 µM | 1.05 µM | –
CNc1nc(C)c(-c2nc(Nc3cccc(C(=O)O)c3)ncc2C#N)s1 [Example 1.6, 3-(5-cyano-4-(4-methyl-2-(methylamino)thiazol-5-yl)pyrimidin-2-ylamino)benzoic acid] | 1.87 µM | 0.55 µM | > 100 µM | –
COc1cccc(-c2nc(N)nc(Nc3cccc([N+](=O)[O-])c3)n2)c1 [Example 2.6, 6-(3-methoxyphenyl)-N2-(3-nitrophenyl)-1,3,5-triazine-2,4-diamine] | 7.07 µM | 7.09 µM | 37.6 µM | –
CNc1nc(C)c(-c2nc(Nc3cccc(C(=O)N4CCN(C(C)=O)CC4)c3)ncc2C#N)s1 [Example 1.5, 2-(3-(4-Acetylpiperazine-1-carbonyl)phenylamino)-4-(4-methyl-2-(methylamino)-thiazol-5-yl)pyrimidine-5-carbonitrile] | – | – | – | IC50 (CDK2): 0.052 µM; IC50 (CDK9; [2]): 0.033 µM
CNc1nc(C)c(-c2nc(Nc3ccc(C)c(S(=O)(=O)N4CCOCC4)c3)ncc2C#N)s1 [Example 1.1, 4-(4-Methyl-2-methylamino-thiazol-5-yl)-2-[4-methyl-3-(morpholine-4-sulfonyl)-phenylamino]-pyrimidine-5-carbonitrile] | 0.06 µM | 0.06 µM | 3.14 µM | IC50 (HeLa): 0.661 µM; IC50 (MDA-MB-231): 0.923 µM; IC50 (PANC W1): 0.366 µM; IC50 (A549): 0.534 µM; IC50 (Mia-Paca-2): 0.468 µM; IC50 (NCI-H460): 0.681 µM; IC50 (A2780): 0.147 µM; IC50 (CDK7): > 1 µM; IC50 (MCF-7; MCF7, read-out: 72-h MTT IC50 (μM), human cell line, breast, MCF-7, 72 h): 0.06 µM; IC50 (HCT-116; read-out: 72-h MTT IC50 (μM), human cell line HCT-116 (origin not given, stands under cervix), 72 h): 0.06 µM; IC50 (CDK2): 0.232 µM; IC50 (CDK9; [2]): 0.041 µM; IC50 (Human tumour cell lines): 0.433 µM
CNc1nc(C)c(-c2nc(Nc3cccc(C(=O)N4CCOCC4)c3)ncc2C#N)s1 [Example 1.4] | 0.82 µM | 0.59 µM | 4.43 µM | IC50 (CDK7): 3.74 µM; IC50 (CDK2): 0.147 µM; IC50 (CDK9; [2]): 0.085 µM
COc1cccc(-c2nc(Cl)nc(Nc3ccc(O)cc3)n2)c1 [Example 2.1, 4-(4-chloro-6-(3-methoxyphenyl)-1,3,5-triazin-2-ylamino)phenol] | – | – | – | melting point: 93.5 to 94 °C
COc1cccc(-c2nc(Cl)nc(Nc3ccc(C)c(S(=O)(=O)N4CCOCC4)c3)n2)c1 [Example 2.4, 4-chloro-6-(3-methoxyphenyl)-N-(4-methyl-3-(morpholinosulfonyl)phenyl)-1,3,5-triazin-2-amine] | 1.58 µM | 0.53 µM | 0.58 µM | –
COc1cccc(-c2nc(Cl)nc(Nc3cccc(Br)c3)n2)c1 [Example 2.3, N-(3-bromophenyl)-4-chloro-6-(3-methoxyphenyl)-1,3,5-triazin-2-amine] | – | – | – | melting point: 141.9 to 142.1 °C
COc1cccc(-c2nc(NO)nc(Nc3cccc([N+](=O)[O-])c3)n2)c1 [Example 2.8, 4-(hydroxyamino)-6-(3-methoxyphenyl)-N-(3-nitrophenyl)-1,3,5-triazin-2-amine] | 6.42 µM | 3.48 µM | 4.24 µM | –
COc1cccc(-c2nc(Cl)nc(Nc3cccc([N+](=O)[O-])c3)n2)c1 [Example 2.2, 4-chloro-6-(3-methoxyphenyl)-N-(3-nitrophenyl)-1,3,5-triazin-2-amine] | – | – | – | melting point: 196.9 to 197.2 °C
CNc1nc(C)c(-c2nc(Nc3cccc(O)c3)ncc2C#N)s1 [Example 1.3, 2-(3-Hydroxy-phenylamino)-4-(4-methyl-2-methylamino-thiazol-5-yl)-pyrimidine-5-carbonitrile] | – | – | – | IC50 (CDK9): 0.019 µM
CNc1nc(C)c(-c2nc(Nc3ccc(S(N)(=O)=O)cc3)ncc2C#N)s1 [Example 1.8, 4-(5-cyano-4-(4-methyl-2-(methylamino)thiazol-5-yl)pyrimidin-2-ylamino)benzenesulfonamide] | 1.64 µM | 0.34 µM | 26 µM | –
